Consider 24 molecules from patent publication US10227357B2, “Compounds and methods for kinase modulation, and indications therefor” (Plexxikon Inc., priority 2012, dated 2019).

What is called IC50 is the concentration that gives 50% inhibition.

For one experiment, the target named is T1, c-kit kinase (Homo sapiens, UniProt P10721).
T1 construct: The c-kit (or kinase domain thereof) is an active kinase in AlphaScreen; poly-Histidine tag (in-house protein only) (cleaved yes); host or cells: E. coli BL21(DE3)RIL, co-expressed with PTP1B
T1 sequence (P10721 26-976): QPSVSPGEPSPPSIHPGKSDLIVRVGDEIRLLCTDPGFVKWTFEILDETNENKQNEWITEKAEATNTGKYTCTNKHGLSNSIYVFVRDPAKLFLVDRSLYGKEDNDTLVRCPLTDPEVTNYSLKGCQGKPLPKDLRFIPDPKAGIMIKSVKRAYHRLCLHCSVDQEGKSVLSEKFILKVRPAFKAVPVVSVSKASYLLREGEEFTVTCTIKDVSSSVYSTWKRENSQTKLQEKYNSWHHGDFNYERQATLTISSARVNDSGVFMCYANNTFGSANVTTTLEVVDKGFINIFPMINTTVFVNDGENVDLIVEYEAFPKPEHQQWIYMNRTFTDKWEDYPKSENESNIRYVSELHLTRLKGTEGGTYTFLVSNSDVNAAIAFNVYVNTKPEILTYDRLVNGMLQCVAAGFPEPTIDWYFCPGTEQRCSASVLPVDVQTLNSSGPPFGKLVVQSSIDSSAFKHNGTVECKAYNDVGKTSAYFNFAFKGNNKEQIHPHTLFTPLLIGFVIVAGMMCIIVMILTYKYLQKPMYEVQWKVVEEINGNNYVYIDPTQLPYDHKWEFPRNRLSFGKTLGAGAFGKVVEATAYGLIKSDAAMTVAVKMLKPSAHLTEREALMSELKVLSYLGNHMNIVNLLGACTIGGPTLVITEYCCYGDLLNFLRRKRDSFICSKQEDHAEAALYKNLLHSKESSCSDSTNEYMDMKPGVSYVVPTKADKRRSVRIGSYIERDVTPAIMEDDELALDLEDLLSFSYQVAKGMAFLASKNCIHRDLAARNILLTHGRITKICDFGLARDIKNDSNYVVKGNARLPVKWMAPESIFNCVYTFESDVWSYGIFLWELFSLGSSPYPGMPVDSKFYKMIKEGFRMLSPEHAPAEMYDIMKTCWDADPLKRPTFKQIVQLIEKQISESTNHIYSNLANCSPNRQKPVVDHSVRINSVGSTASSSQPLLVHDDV
As to the kind of experiment: c-Kit biochemical assay, AlphaScreen, 10 μM ATP. The following applies: c-kit biochemical inhibitory activity; read-out: Biochemical activity (IC50 μM) Kit. In a few lines: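 His-tagged c-Kit expressed in E. coli with co-expressed PTP1B (dephosphorylated), tag removed; 0.1 ng per reaction with biotinylated-peptide substrate in 50 mM HEPES pH 7.2, 5 mM MgCl2, 5 mM MnCl2, 5% DMSO, 10 μM ATP, 1 h at room temperature. Phosphorylation detected by AlphaScreen (streptavidin donor, PY20 acceptor beads); IC50 from 8-point 1:3 dilution series.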

The next experiment addresses T2, c-kit mutant D816V (Homo sapiens, UniProt P10721, D816V/DEL694-753).
T2 construct: residues 551-934, kinase insertion domain residues 694-753 deleted; 6x-histidine (N); made in house; host or cells: E. coli Arctic Express (DE3) RIL (Stratagene)
As to the kind of experiment: c-Kit mutant D816V biochemical assay, AlphaScreen. The following applies: c-kit D816V biochemical inhibitory activity; read-out: Biochemical activity (IC50 μM) Kit D816V. Put shortly:
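Eight-point, threefold compound series incubated 30 min at room temperature with E. coli-produced D816V kinase, 10 μM ATP, Mg2+/Mn2+ HEPES buffer pH 7.2 and 5% DMSO. After EDTA stop, streptavidin and anti-phosphotyrosine (PY20) AlphaScreen beads gave the read-out, and IC50 was fitted from the concentration–signal curve.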
(In general: In Alpha technology, singlet oxygen from a donor bead excites a nearby acceptor bead.)

T2 sequence (P10721 with tags, fused parts or gaps DEL694-753/D816V): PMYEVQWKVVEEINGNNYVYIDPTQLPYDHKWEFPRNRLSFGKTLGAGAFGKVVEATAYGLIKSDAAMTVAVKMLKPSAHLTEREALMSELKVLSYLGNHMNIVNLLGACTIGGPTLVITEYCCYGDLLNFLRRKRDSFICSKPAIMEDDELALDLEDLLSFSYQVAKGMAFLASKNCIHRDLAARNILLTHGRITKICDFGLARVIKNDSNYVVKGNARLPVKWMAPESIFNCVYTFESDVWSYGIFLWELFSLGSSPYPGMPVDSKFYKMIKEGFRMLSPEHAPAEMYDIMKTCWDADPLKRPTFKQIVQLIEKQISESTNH

For `Cn1cc(-c2cc3c(N4CCN(c5nc6ccccc6[nH]5)CC4)ncnc3[nH]2)cn1` [P-0010, 4-[4-(1H-benzimidazol-2-yl)piperazin-1-yl]-6-(1-methylpyrazol-4-yl)-7H-pyrrolo[2,3-d]pyrimidine], the IC50 at c-kit kinase and at c-kit mutant D816V was 0.0001 to 1 µM throughout.

For `Fc1ccc(-c2cc3c(N4CCN(c5nc6ccccc6[nH]5)CC4)ncnc3[nH]2)cc1` [P-0011, 4-[4-(1H-benzimidazol-2-yl)piperazin-1-yl]-6-(4-fluorophenyl)-7H-pyrrolo[2,3-d]pyrimidine], the IC50 lay in the range of 10 to 200 µM on c-kit kinase and 0.0001 to 1 µM on c-kit mutant D816V.

As to `COc1cc(-c2cc3c(N4CCN(C(=O)N[C@@H](C)c5cccc(OC(F)F)c5)C(C)(C)C4)ncnc3[nH]2)ccn1` [P-0012, N-[(1S)-1-[3-(difluoromethoxy)phenyl]ethyl]-4-[6-(2-methoxy-4-pyridyl)-7H-pyrrolo[2,3-d]pyrimidin-4-yl]-2,2-dimethyl-piperazine-1-carboxamide], the results for the IC50 on c-kit kinase and on c-kit mutant D816V were 1 to 10 µM and 0.0001 to 1 µM, respectively.

With `Cc1ccc(-c2cc3c(N4CCN(c5nc6ccccc6[nH]5)CC4)ncnc3[nH]2)cn1` [P-0013, 4-[4-(1H-benzimidazol-2-yl)piperazin-1-yl]-6-(6-methyl-3-pyridyl)-7H-pyrrolo[2,3-d]pyrimidine], the figures for the IC50 at c-kit kinase and at c-kit mutant D816V were 1 to 10 µM and 0.0001 to 1 µM, respectively.

For `C[C@H](NC(=O)N1CCN(c2ncnc3[nH]c(-c4ccc(F)cc4)cc23)C[C@H]1C)c1cccc(OC(F)F)c1` [P-0014, (2R)-N-[(1S)-1-[3-(difluoromethoxy)phenyl]ethyl]-4-[6-(4-fluorophenyl)-7H-pyrrolo[2,3-d]pyrimidin-4-yl]-2-methyl-piperazine-1-carboxamide], the IC50 at c-kit kinase is 1 to 10 µM; on c-kit mutant D816V, 0.0001 to 1 µM.

In the case of `[2H]C([2H])([2H])Oc1cccc([C@H](C)NC(=O)N2CCN(c3ncnc4[nH]c(-c5ccc(F)cc5)cc34)CC2)c1` [P-0015, 4-[6-(4-fluorophenyl)-7H-pyrrolo[2,3-d]pyrimidin-4-yl]-N-[(1S)-1-[3-(trideuteriomethoxy)phenyl]ethyl]piperazine-1-carboxamide], the IC50 is 1 to 10 µM on c-kit kinase and 0.0001 to 1 µM at c-kit mutant D816V.

On to `C[C@H](NC(=O)N1CCN(c2ncnc3[nH]c(-c4ccc(F)cc4)cc23)CC1)c1cccc(N(C)C)c1` [P-0016, N-[(1S)-1-[3-(dimethylamino)phenyl]ethyl]-4-[6-(4-fluorophenyl)-7H-pyrrolo[2,3-d]pyrimidin-4-yl]piperazine-1-carboxamide], for which the values for the IC50 at c-kit kinase and at c-kit mutant D816V were 1 to 10 µM and 0.0001 to 1 µM, respectively.

With `COc1ccc([C@H](C)NC(=O)N2CCN(c3ncnc4[nH]c(-c5ccc(F)cc5)cc34)C[C@H]2C)cc1` [P-0018, (2R)-4-[6-(4-fluorophenyl)-7H-pyrrolo[2,3-d]pyrimidin-4-yl]-N-[(1S)-1-(4-methoxyphenyl)ethyl]-2-methyl-piperazine-1-carboxamide], the IC50 on c-kit kinase lay within 1 to 10 µM; at c-kit mutant D816V it was 0.0001 to 1 µM.

Regarding `COc1ccc([C@@H](C)NC(=O)N2CCN(c3ncnc4[nH]c(-c5ccc(Cl)cc5)cc34)C[C@H]2C)cc1` [P-0019, (2R)-4-[6-(4-chlorophenyl)-7H-pyrrolo[2,3-d]pyrimidin-4-yl]-N-[(1R)-1-(4-methoxyphenyl)ethyl]-2-methyl-piperazine-1-carboxamide], the IC50 at c-kit kinase was 10 to 200 µM; on c-kit mutant D816V, 1 to 10 µM.

In the case of `C[C@H](NC(=O)N1CCN(c2ncnc3[nH]c(-c4ccc(Cl)cc4)cc23)C[C@H]1C)c1ccc(Cl)cc1` [P-0020, (2R)-N-[(1S)-1-(4-chlorophenyl)ethyl]-4-[6-(4-chlorophenyl)-7H-pyrrolo[2,3-d]pyrimidin-4-yl]-2-methyl-piperazine-1-carboxamide], the IC50 at c-kit kinase and at c-kit mutant D816V was 1 to 10 µM throughout.

With `C[C@H](NC(=O)N1CCN(c2ncnc3[nH]c(-c4ccc(Cl)cc4)cc23)C[C@H]1C)c1ccc(F)cc1` [P-0023, (2R)-4-[6-(4-chlorophenyl)-7H-pyrrolo[2,3-d]pyrimidin-4-yl]-N-[(1S)-1-(4-fluorophenyl)ethyl]-2-methyl-piperazine-1-carboxamide], the IC50 at c-kit kinase was in the range of 10 to 200 µM; on c-kit mutant D816V, 0.0001 to 1 µM.

With `COc1cccc([C@H](C)NC(=O)N2CCN(c3ncnc4[nH]c(-c5ccc(Cl)cc5)cc34)C[C@H]2C)c1` [P-0024, (2R)-4-[6-(4-chlorophenyl)-7H-pyrrolo[2,3-d]pyrimidin-4-yl]-N-[(1S)-1-(3-methoxyphenyl)ethyl]-2-methyl-piperazine-1-carboxamide], the IC50 at c-kit kinase lay within 1 to 10 µM; on c-kit mutant D816V, 0.0001 to 1 µM.

As to `C[C@H](NC(=O)N1CCN(c2ncnc3[nH]c(-c4ccc(F)cc4)cc23)CC1)c1cccc(Cl)c1` [P-0027, N-[(1S)-1-(3-chlorophenyl)ethyl]-4-[6-(4-fluorophenyl)-7H-pyrrolo[2,3-d]pyrimidin-4-yl]piperazine-1-carboxamide], the results for the IC50 on c-kit kinase and at c-kit mutant D816V were 10 to 200 µM and 0.0001 to 1 µM, respectively.

`COc1cccc([C@H](C)NC(=O)N2CCN(c3ncnc4[nH]c(-c5ccc(F)cc5)cc34)C[C@H]2C)c1` [P-0028, (R)-4-[6-(4-Fluoro-phenyl)-7H-pyrrolo[2,3-d]pyrimidin-4-yl]-2-methyl-piperazine-1-carboxylic acid [(S)-1-(3-methoxy-phenyl)-ethyl]-amide]: the IC50 at c-kit kinase and on c-kit mutant D816V was 0.0001 to 1 µM throughout.

Consider `C[C@H](NC(=O)N1CCN(c2ncnc3[nH]c(-c4ccc(F)cc4)cc23)C[C@H]1C)c1ccc(Cl)cc1` [P-0029, (2R)-N-[(1S)-1-(4-chlorophenyl)ethyl]-4-[6-(4-fluorophenyl)-7H-pyrrolo[2,3-d]pyrimidin-4-yl]-2-methyl-piperazine-1-carboxamide], for which the IC50 at c-kit kinase was in the range of 10 to 200 µM; on c-kit mutant D816V it was 0.0001 to 1 µM.

Consider `C[C@H](NC(=O)N1CCN(c2ncnc3[nH]c(-c4ccc(F)cc4)cc23)C[C@H]1C)c1ccc(F)cc1` [P-0030, (2R)-N-[(1S)-1-(4-fluorophenyl)ethyl]-4-[6-(4-fluorophenyl)-7H-pyrrolo[2,3-d]pyrimidin-4-yl]-2-methyl-piperazine-1-carboxamide], for which the IC50 at c-kit kinase was 10 to 200 µM; at c-kit mutant D816V it was 0.0001 to 1 µM.

Take `COc1ccc([C@@H](C)NC(=O)N2CCN(c3ncnc4[nH]c(-c5ccc(F)cc5)cc34)C[C@H]2C)cc1` [P-0031, (2R)-4-[6-(4-fluorophenyl)-7H-pyrrolo[2,3-d]pyrimidin-4-yl]-N-[(1R)-1-(4-methoxyphenyl)ethyl]-2-methyl-piperazine-1-carboxamide]: the results for the IC50 at c-kit kinase and at c-kit mutant D816V were 10 to 200 µM and 1 to 10 µM, respectively.

On to `COc1cccc([C@@H](C)NC(=O)N2CCN(c3ncnc4[nH]c(-c5ccc(F)cc5)cc34)C[C@H]2C)c1` [P-0032, (2R)-4-[6-(4-fluorophenyl)-7H-pyrrolo[2,3-d]pyrimidin-4-yl]-N-[(1R)-1-(3-methoxyphenyl)ethyl]-2-methyl-piperazine-1-carboxamide], for which the IC50 on c-kit kinase was 10 to 200 µM; on c-kit mutant D816V, 1 to 10 µM.

As to `C[C@@H]1CN(c2ncnc3[nH]c(-c4ccc(F)cc4)cc23)CCN1C(=O)N[C@H](C)c1ccc(Cl)cc1` [P-0035, (2R)-N-[(1R)-1-(4-chlorophenyl)ethyl]-4-[6-(4-fluorophenyl)-7H-pyrrolo[2,3-d]pyrimidin-4-yl]-2-methyl-piperazine-1-carboxamide], the figures for the IC50 on c-kit kinase and at c-kit mutant D816V were 10 to 200 µM and 1 to 10 µM, respectively.

Regarding `C[C@H]1CN(c2ncnc3[nH]c(-c4ccncc4)cc23)CCN1C(=O)NCc1ccc(Cl)cc1` [P-0044, (2S)-N-[(4-chlorophenyl)methyl]-2-methyl-4-[6-(4-pyridyl)-7H-pyrrolo[2,3-d]pyrimidin-4-yl]piperazine-1-carboxamide], the IC50 at c-kit kinase and at c-kit mutant D816V was 0.0001 to 1 µM throughout.

As for `C[C@H]1CN(c2ncnc3[nH]c(-c4ccncc4)cc23)CCN1C(=O)Nc1ccc(Cl)cc1` [P-0045, (2S)-N-(4-chlorophenyl)-2-methyl-4-[6-(4-pyridyl)-7H-pyrrolo[2,3-d]pyrimidin-4-yl]piperazine-1-carboxamide], the IC50 on c-kit kinase and at c-kit mutant D816V was 1 to 10 µM throughout.

Turning to `COc1cccc([C@H](C)NC(=O)N2CCN(c3ncnc4[nH]c(C#CC5CC5)cc34)CC2)c1` [P-0047, 4-[6-(2-cyclopropylethynyl)-7H-pyrrolo[2,3-d]pyrimidin-4-yl]-N-[(1S)-1-(3-methoxyphenyl)ethyl]piperazine-1-carboxamide], the IC50 lay within 1 to 10 µM at c-kit kinase and 0.0001 to 1 µM at c-kit mutant D816V.

Turning to `CN(C)c1ccc(NC(=O)N2CCN(c3ncnc4[nH]c(C#CC5CC5)cc34)CC2)cc1` [P-0052, 4-[6-(2-cyclopropylethynyl)-7H-pyrrolo[2,3-d]pyrimidin-4-yl]-N-(4-dimethylaminophenyl)piperazine-1-carboxamide], the IC50 was 1 to 10 µM on c-kit kinase and 10 to 200 µM at c-kit mutant D816V.

Take `O=C(Nc1ccc(OC(F)(F)F)cc1)N1CCN(c2ncnc3[nH]c(C#CC4CC4)cc23)CC1` [P-0053, 4-[6-(2-cyclopropylethynyl)-7H-pyrrolo[2,3-d]pyrimidin-4-yl]-N-[4-(trifluoromethoxy)phenyl]piperazine-1-carboxamide]: the IC50 on c-kit kinase fell in the range of 1 to 10 µM; on c-kit mutant D816V, 10 to 200 µM.
